Counter-ions that a name gives are not always drawn. Like-named read-outs stand apart in the source and are kept apart here.
Experiments:
[1] = Apparent permeability across Caco-2 monolayer (BA and AB); assay type: in vitro ADME; details: human, 120 min, HBSS pH 7.4; for Papp A→B at 120 min, 100 µM: Apical-to-Basolateral; for Papp B→A at 120 min, 100 µM: Basolateral-to-Apical
Procedure: (§1) Permeability experiments. Details for permeability experiments. Preparation of Caco‐2 monolayer. This procedure has been previously reported by Colabufo et al.[65] Briefly, Caco‐2 cells were harvested with trypsin‐EDTA and seeded onto MultiScreen Caco‐2 assay system at a density of 10,000 cells per well. The culture medium was replaced every 48 h for the first 6 days and every 24 h thereafter. After 21 days in culture, the Caco‐2 monolayer was utilized for the permeability experiments. The Trans Epithelial Electrical Resistance (TEER) of the monolayers was measured daily before and after the experiment using an epithelial voltohmmeter (Millicell®‐ERS; Millipore, Billerica, MA). […] Drug transport experiment. […] Drugs were dissolved in Hanks’ balanced salt solution (HBSS, pH 7.4) and sterile filtered. After 21 days of cell growth, the medium was removed from filter wells and from the receiver plate. The wells were filled with 75 μL of fresh HBSS buffer and the receiver plate with 250 μL per well of the same buffer. This procedure was repeated twice, and the plates were incubated at 37 °C for 30 min. After incubation, the HBSS buffer was removed and drug solutions added to the filter well (75 μL). HBSS without the drug was added to the receiver plate (250 μL). The plates were incubated at 37 °C for 120 min. After incubation, samples were removed from the apical (filter well) and basolateral (receiver plate) sides of the monolayer and stored at −20 °C up to analysis. Compounds were lyophilized at −52 °C and 0.06 bars for 24 h and desalted by adding 500 μL of CH3CN (in order to remove phosphate salts coming from HBSS), then 500 μL of Ammonium Acetate (50 mM, pH 5) were added. The resulting solutions were analyzed by ESI‐MS in order to determine the concentration of drug in the samples. The concentration of tested compounds was measured using UV spectroscopy. The apparent permeability (P app), in units of nm per second, was calculated using the following equation: […]
(§2) where V A is the volume (in mL) in the acceptor well; Area is the surface area of the membrane (0.11 cm^2 of the well); time is the total transport time in seconds (7200 s); [drug]acceptor is the concentration of the drug measured by ESI‐MS analyses or UV spectroscopy; [drug]initial is the initial drug concentration (1 ⋅ 10^−4 M) in the apical or basolateral wells.

[2] = target: T1, hNav1.4 (Homo sapiens, UniProt P35499); details: cited from earlier work
T1 sequence (P35499 whole entry): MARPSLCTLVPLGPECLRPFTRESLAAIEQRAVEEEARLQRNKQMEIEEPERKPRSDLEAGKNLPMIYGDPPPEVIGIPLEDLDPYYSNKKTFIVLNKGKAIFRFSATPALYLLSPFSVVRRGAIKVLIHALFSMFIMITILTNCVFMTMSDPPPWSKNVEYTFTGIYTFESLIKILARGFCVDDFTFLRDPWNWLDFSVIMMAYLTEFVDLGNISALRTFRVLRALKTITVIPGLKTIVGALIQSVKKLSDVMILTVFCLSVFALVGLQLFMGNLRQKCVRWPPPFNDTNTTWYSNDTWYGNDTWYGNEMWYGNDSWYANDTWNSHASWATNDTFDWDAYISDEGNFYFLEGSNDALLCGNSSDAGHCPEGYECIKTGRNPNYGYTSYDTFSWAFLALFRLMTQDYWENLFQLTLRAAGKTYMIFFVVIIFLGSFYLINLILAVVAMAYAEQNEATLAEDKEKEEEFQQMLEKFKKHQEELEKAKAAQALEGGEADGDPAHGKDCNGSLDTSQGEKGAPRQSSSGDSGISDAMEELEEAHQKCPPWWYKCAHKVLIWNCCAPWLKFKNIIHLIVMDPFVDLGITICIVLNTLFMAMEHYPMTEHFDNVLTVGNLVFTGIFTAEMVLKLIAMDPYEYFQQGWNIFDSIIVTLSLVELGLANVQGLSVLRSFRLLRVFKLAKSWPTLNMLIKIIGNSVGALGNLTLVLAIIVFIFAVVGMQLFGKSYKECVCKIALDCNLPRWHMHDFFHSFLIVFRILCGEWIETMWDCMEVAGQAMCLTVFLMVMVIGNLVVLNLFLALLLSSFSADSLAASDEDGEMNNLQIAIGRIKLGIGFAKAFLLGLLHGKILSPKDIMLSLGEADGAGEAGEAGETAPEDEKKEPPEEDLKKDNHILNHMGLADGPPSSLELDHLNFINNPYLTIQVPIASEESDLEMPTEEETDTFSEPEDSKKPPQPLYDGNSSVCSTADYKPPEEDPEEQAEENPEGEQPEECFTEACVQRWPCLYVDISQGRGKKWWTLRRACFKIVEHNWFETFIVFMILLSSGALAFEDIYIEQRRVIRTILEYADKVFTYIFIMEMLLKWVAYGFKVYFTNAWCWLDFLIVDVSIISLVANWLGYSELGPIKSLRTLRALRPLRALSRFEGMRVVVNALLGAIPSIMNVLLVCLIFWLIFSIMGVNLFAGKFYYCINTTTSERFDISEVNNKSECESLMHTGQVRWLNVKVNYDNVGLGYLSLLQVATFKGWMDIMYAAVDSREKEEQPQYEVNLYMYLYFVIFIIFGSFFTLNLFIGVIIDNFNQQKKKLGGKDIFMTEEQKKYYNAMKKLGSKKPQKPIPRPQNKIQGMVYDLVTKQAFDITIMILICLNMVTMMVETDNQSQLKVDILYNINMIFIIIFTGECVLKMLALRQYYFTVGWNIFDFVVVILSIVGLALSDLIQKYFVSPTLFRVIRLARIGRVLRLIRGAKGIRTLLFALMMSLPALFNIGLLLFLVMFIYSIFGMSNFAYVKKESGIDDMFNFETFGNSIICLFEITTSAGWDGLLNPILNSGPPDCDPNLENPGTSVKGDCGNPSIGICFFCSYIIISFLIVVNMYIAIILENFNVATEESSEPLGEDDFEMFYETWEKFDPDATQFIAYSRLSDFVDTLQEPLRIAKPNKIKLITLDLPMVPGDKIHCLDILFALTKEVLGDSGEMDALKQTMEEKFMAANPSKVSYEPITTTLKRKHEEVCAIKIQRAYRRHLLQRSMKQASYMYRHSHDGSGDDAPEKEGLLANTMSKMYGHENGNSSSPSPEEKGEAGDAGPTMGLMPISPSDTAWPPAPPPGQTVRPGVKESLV

[3] = target: T1, hNav1.4; assay: Patch-clamp block of hNav1.4 sodium currents in HEK293T cells; assay type: cell-based; details: for IC50: HEK293T cells, value ± standard error of the fit; for TB/PB (ratio IC50 tonic block/IC50 phasic block): use-dependence
Procedure: Patch clamp experiments. Exploratory compounds were tested on sodium currents recorded in HEK293T cells (human embryonic kidney cell line) permanently expressing the wild‐type human Nav1.4 sodium channel, as previously described.[14, 61] Whole‐cell sodium currents were recorded at room temperature (∼22 °C) using Axon hardware and software (Axon Instruments Inc., Union City, CA, USA). Bath solution contained (mM): 150 NaCl, 4 KCl, 2 CaCl2, 1 MgCl2, 5 HEPES and 5 glucose (pH 7.4). Pipette solution contained (mM): 120 CsF, 10 CsCl, 10 NaCl, 5 EGTA, and 5 HEPES (pH 7.2). Pipette resistance was […]. Stabilization of the whole‐cell configuration was allowed for 5 minutes before to record sodium currents elicited from a holding potential of −120 mV using 25 ms‐long test pulses at −30 mV applied every 10 or 0.1 sec (0.1 and 10 Hz frequencies). The patched cell was continuously perfused by control or drug‐supplemented bath solution. To limit errors due to rundown and voltage‐dependence shifts, no more than two drug concentrations were tested on each cell. The I DRUG/I CTRL ratio (mean±S.E.M. from at least 3 cells) was plotted against drug concentration.
The half‐maximum inhibitory concentration (IC50) and slope factor (nH) are given with the standard error of the fit.

[4] = tested on: P-gp; assay: Apparent permeability across Caco-2 monolayer (BA and AB); assay type: in vitro ADME; details: human, pH 7.4; ratio of Papp BA to Papp AB
Procedure: as §1, §2

[5] = tested on: HeLa cells; assay: Cell viability by 7-AAD co-staining, flow cytometry; assay type: cell-based, human; details: 1 and 50 μM, 24 h
Procedure: (§3) Cell culture. Cervical cancer cell lines (HeLa) were cultured in Dulbecco's modified eagle medium (DMEM) supplemented with 10 % fetal bovine serum (FBS), 1 % glutamine, and 1 % penicillin/streptomycin (all purchased from Euroclone, Italy) in a humidified incubator at 37 °C and 5 % CO2 and 95 % relative humidity.
(§4) Flow cytometry analysis. In order to detect ROS production after drugs treatment,[66, 67] cells at 3×10^5 cells were seeded in 6‐well plates in DMEM with 10 % FBS and cultured overnight. The following day, cells were washed twice with PBS and kept in DMEM without FBS for 2 h. […] Antibiotics were omitted during pharmacological compound assays. After incubation period, cells were washed twice with HBSS, and stained with 5 μM of 2′,7′‐dichorofluorescein (DCFA‐DA) and dihydrorhodamine (DHR) (Thermo Fischer Scientific, Italy) for 30 min in dark. After washing, cells were resuspended in HBSS and analyzed using an Attune Acoustic Focusing Cytometer (Thermo Fisher Scientific) equipped with a 488 nm laser. Thereafter, DCFA‐DA stained cells were co‐stained with 1 μg/mL of 7‐aminoactinomycin D (7‐AAD) (Thermo Fischer Scientific, Italy), incubated on ice for 45 min in dark in order to asses viable and non‐viable cells, and then flow cytometry analysis was carried out.

[6] = tested on: HeLa cells; assay: ROS production by DCF staining, flow cytometry; assay type: cell-based, human
Procedure: as §3, §4

[7] = tested on: HeLa cells; assay: Mitochondrial ROS production by DHR staining, flow cytometry; assay type: cell-based, human; details: 50 μM, compared with 13 a
Procedure: as §3, §4

[8] = 0.1 Hz stimulation, read-out: Tonic Block IC50 at 0.1 Hz
[9] = 10 Hz stimulation, read-out: Phasic Block IC50 at 10 Hz

Structure (SMILES) | melting point [°C] | Papp A→B at 120 min, 100 µM [1] [×10⁻⁶ cm/s] | Papp B→A at 120 min, 100 µM [1] [×10⁻⁶ cm/s] | nH (slope factor), tonic block ([2]; 0.1 Hz stimulation) | nH (slope factor), phasic block ([2]; 10 Hz stimulation) | nH (slope factor), tonic block ([3]; 0.1 Hz stimulation) | IC50 [3, 8] [µM] | nH (slope factor), phasic block ([3]; 10 Hz stimulation) | IC50 [3, 9] [µM] | TB/PB (ratio IC50 tonic block/IC50 phasic block) [3] | efflux ratio at 120 min, 100 µM [4] | further results
Cc1cccc(C)c1NC(=O)CC(C)NCc1ccc2ccccc2c1 (stereo not drawn) (as salt: hydrochloride) [13 b, N‐(2,6‐Dimethylphenyl)‐3‐[(naphthalen‐2‐ylmethyl)amino]butanamide] | 199 to 201 |  |  |  |  |  |  |  |  |  |  | 
Cc1cccc(C)c1OCCC(C)NCc1cccc2ccccc12 (stereo not drawn) (as salt: hydrochloride) [17 a, N‐[(Naphthalen‐1‐yl)methyl]‐4‐[(2,6‐dimethyl)phenoxy]butan‐2‐amine] | 183 to 184 |  |  |  |  |  |  |  |  |  |  | 
Cc1cccc(C)c1OCCC(C)NCc1ccc2ccccc2c1 (stereo not drawn) (as salt: hydrochloride) [17 b, N‐[(Naphthalen‐2‐yl)methyl]‐4‐[(2,6‐dimethyl)phenoxy]butan‐2‐amine] | 178 to 179 |  |  |  |  |  |  |  |  |  |  | 
Cc1cccc(C)c1NC(=O)CC(C)NCc1cccc2ccccc12 (stereo not drawn) [13 a, N‐(2,6‐Dimethylphenyl)‐3‐[(naphthalen‐1‐ylmethyl)amino]butanamide] |  | 56.6 | 223 | 1.3±0.1 | 0.8±0.1 |  |  |  |  |  |  | 
Cc1cccc(C)c1NC(=O)CC(C)NCc1ccc2ccccc2c1 (stereo not drawn) [13 b, N‐(2,6‐Dimethylphenyl)‐3‐[(naphthalen‐2‐ylmethyl)amino]butanamide] |  | 43.8 | 216 |  |  | 1.1±0.1 | 147 ± 12 | 0.8±0.1 | 14 ± 1.8 | 10.5 | 4.9 | 
Cc1cccc(C)c1OCCC(C)NCc1cccc2ccccc12 (stereo not drawn) [17 a, N‐[(Naphthalen‐1‐yl)methyl]‐4‐[(2,6‐dimethyl)phenoxy]butan‐2‐amine] |  | 25.9 | 180 |  |  | 1.2±0.2 | 1080 ± 150 | 0.8±0.1 | 57 ± 8 | 18.9 | 7.1 | fold higher IC50 value at 10 Hz than To042 ([3]; 10 Hz, relative to To042): 6 fold; cellular viability (7-AAD positive cells untreated related) [5]: not affected; percentage of ROS producing cells related to untreated cells (% DCF (+) cells) ([6]; 1 μM, 6 h exposure): no significant effects; percentage of ROS producing cells related to untreated cells (% DCF (+) cells) ([6]; 50 μM, 6 h exposure): significant cytoprotective effect; ROS production related to untreated cells (DCF fluorescence median) ([6]; 50 μM, 24 h exposure): ~3 fold; percentage of ROS producing cells related to untreated cells (% DCF (+) cells) ([6]; 24 h exposure, regardless of concentrations (1 and 50 μM)): prominent cytoprotective effect; mitochondrial ROS levels (DHR) [7]: lower ROS levels; percentage of mitochondrial ROS producing cells (DHR) [7]: lower percentage of ROS producing cells
Cc1cccc(C)c1OCCC(C)NCc1ccc2ccccc2c1 (stereo not drawn) [17 b, N‐[(Naphthalen‐2‐yl)methyl]‐4‐[(2,6‐dimethyl)phenoxy]butan‐2‐amine] |  | 49.6 | 199 |  |  | 0.9±0.1 | 88 ± 11 | 1.1±0.1 | 8.8 ± 0.6 | 10 | 4 | 
Cc1cccc(C)c1OCC(C)N (stereo not drawn) [mexiletine] |  |  |  | 1.2±0.1 | 0.9±0.1 |  |  |  |  |  |  | IC50 [2, 8]: 256 ± 25 µM; IC50 [2, 9]: 46 ± 5 µM
Cc1cccc(C)c1NC(=O)C(C)N (stereo not drawn) [tocainide] |  | 49.6 | 196 | 1.0±0.1 | 1.1±0.2 |  |  |  |  |  | 3.9 | IC50 [2, 8]: 700 ± 70 µM; IC50 [2, 9]: 182 ± 24 µM; TB/PB (ratio IC50 tonic block/IC50 phasic block) ([2]; use-dependence): 3.8
